# pIC50: −log10 of the molar value.
# Tested on: NCI-H2228 cell line
# Assay: CellTiter-Glo cell proliferation inhibition on NCI-H2228 cell line
# Format: cell-based
# Conditions: Homo sapiens, NCI-H2228 cells, 5000 cells/well, 4 days drug treatment
# Protocol: 3. Cell Proliferation Inhibitory Activities of the Compounds of the Present Invention on NCI-H2228 Cell Line
# ? experimental method ? CellTiter-Glo® Luminescent Cell Viability Assay kit from Promega company was used to detect cell proliferation inhibitory activities of the compounds on NCI-H2228 cell line.
# ? instrument ? Envision 2104 plate reader from PerKinElmer company; Vi-Cell XR cell counter from Beckman Counter company; MCO-18AIC CO2 incubator from SANYO company.
# ? experiment material ? CellTiter-Glo® Luminescent Cell Viability Assay Kit (Promega company, catalog No. G7573); NCI-H2228 cell line (ATCC, catalog No. CRL-5935); RPMI-1640 medium (HyClone company, catalog No. SH30809.01B); fetal bovine serum (FBS) (Gibco company, catalog No. 10099-141); trypsin (Trypsin) (Gibco company, catalog No. 25200-072); PBS (HyClone company, catalog No. SH30256.01B); 96 wells cell culture plate (Corning company, catalog No. 3610); DMSO (AMRESCO company, catalog No. 0231); 96 wells plates (for diluting compounds) (CITOTEST company, catalog No. Ref36020096D);
# ? experimental condition ? NCI-H2228 cells in exponential growth phase were collected and treated with trypsin (Trypsin), and viable cells were counted by Vi-Cell XR cell counter. Cell suspension was adjusted to 62500 cells/ml with culture medium (RPMI-1640+10% FBS). 80 μl cell suspension was added into each well of 96 wells cell culture plate so that the final cell number of NCI-H2228 cells was 5000 cells/well. The cells were cultivated in an incubator with an atmosphere of 37° C., 5% CO2 and 95% humidity for 2 hours and then each well was added with 20 μl compounds in RPMI-1640 medium solution (the final concentration of DMSO was 0.5%). 4 days after drug treatment, each well was added with 50 μl CellTiter-Glo solution which was previously thawed and equilibrated to room temperature, and mixed for 2 minutes with microplate shaker. After placing at room temperature for 10 minutes, luminescence value was measured by PerkinElmer Envision 2104 plate reader and the data was analyzed.
# ? tested samples ? Compounds of the examples.
# ? data analysis ? Luminescence value of DMSO solvent control (Vvehicle control, which is the mean luminescence value from DMSO solvent control group)
# Tested luminescence value (Vsample, which is the luminescence value from given concentration of compounds group) Inhibition rate (%)=(1−Vsample/Vvehicle control)×100
# ? data processing ? IC50 of compounds was calculated by using XLfit program in Excel.
SMILES,"pIC50 (NCI-H2228, 96 h)",pIC50 (96 h)
"COCCN1CCC(c2cc(OC(C)C)c(Nc3ncc(Cl)c(Nc4cn(C)nc4S(=O)(=O)C(C)C)n3)cc2C)CC1 [Final product 142, 5-chloro-N^2-(2-isopropoxy-4-(1-(2-methoxyethyl)piperidin-4-yl)-5-methyl-phenyl)-N^4-(3-(isopropylsulfonyl)-1-methyl-1H-pyrazol-4)-pyrimidin-2,4-diamine]",6.85,–
"CCOc1cc(C2CCN(CCOC)CC2)c(C)cc1Nc1ncc(Cl)c(Nc2cn(C)nc2S(=O)(=O)C(C)C)n1 [Final product 143, 5-chloro-N^2-(2-ethoxy-4-(1-(2-methoxyethyl)piperidin-4-yl)-5-methyl-phenyl)-N^4-(3-(isopropylsulfonyl)-1-methyl-1H-pyrazol-4)-pyrimidin-2,4-diamine]",7.49,–
"COCCN1CCC(c2cc(OC3CCC3)c(Nc3ncc(Cl)c(Nc4cn(C)nc4S(=O)(=O)C(C)C)n3)cc2C)CC1 [Final product 144, 5-chloro-N^2-(2-cyclobutyloxy-4-(1-(2-methoxyethyl)piperidin-4-yl)-5-methyl-phenyl)-N^4-(3-(isopropylsulfonyl)-1-methyl-1H-pyrazol-4)-pyrimidin-2,4-diamine]",7.32,–
"Cc1cc(Nc2ncc(Cl)c(Nc3cn(C)nc3S(=O)(=O)C(C)C)n2)c(OC2CC2)cc1C1CCN(CCF)CC1 [Final product 145, 5-chloro-N^2-[2-cyclopropoxy-4-(1-(2-fluoroethyl)piperidin-4-yl)-5-methylphenyl]-N^4-[1-methyl-3-(isopropylsulfonyl)-1H-pyrazol-4-yl]-pyrimidin-2,4-diamine]",7.27,–
"Cc1cc(Nc2ncc(Cl)c(Nc3cn(C)nc3S(=O)(=O)C(C)C)n2)c(OC2CC2)cc1C1CCN(C(C)(C)CO)CC1 [Final product 147, 2-(4-(4-(5-chloro-4-(3-(isopropylsulfonyl)-1-methyl-1H-pyrazol-4-amino)pyrimidin-2-amino)-5-cyclopropoxy-2-methylphenyl)piperidin-1-yl)-2-methyl-1-propanol]",7.39,–
Cc1cc(Nc2ncc(Cl)c(Nc3cn(C)nc3S(=O)(=O)C(C)C)n2)c(OC2CC2)cc1C1CCCN(C(C)(C)CO)C1 (centres unmarked) [Final product 148],7.36,–
Cc1cc(Nc2ncc(Cl)c(Nc3cn(C)nc3S(=O)(=O)CC(C)C)n2)c(OC2CC2)cc1C1CCN(C(C)(C)CO)CC1 [Final product 149],7.24,–
CCOc1cc(C2CCN(C(C)(C)CO)CC2)c(C)cc1Nc1ncc(Cl)c(Nc2cn(C)nc2S(=O)(=O)C(C)C)n1 [Final product 150],7.37,–
CCOc1cc(C2CCCN(C(C)(C)CO)C2)c(C)cc1Nc1ncc(Cl)c(Nc2cn(C)nc2S(=O)(=O)C(C)C)n1 (centres unmarked) [Final product 151],7.15,–
Cc1cc(Nc2ncc(Cl)c(Nc3cn(C)nc3S(=O)(=O)C(C)C)n2)c(OC2CCC2)cc1C1CCN(C(C)(C)CO)CC1 [Final product 153],7.22,–
Cc1cc(Nc2ncc(Cl)c(Nc3cn(C)nc3S(=O)(=O)C(C)C)n2)c(OC2CCC2)cc1C1CCCN(C(C)(C)CO)C1 (centres unmarked) [Final product 154],6.89,–
"Cc1cc(Nc2ncc(Cl)c(Nc3cn(C)nc3S(=O)(=O)C(C)C)n2)c(OC2CC2)cc1C1CCN(CC(=O)N(C)C)CC1 [Final product 155, 2-(4-(4-(5-chloro-4-(3-(isopropoxysulfonyl)-1-methyl-1H-pyrazol-4-yl-amino)pyrimidin-2-yl-amine)-5-cyclopropoxy-2-methylphenyl)piperidin-1-yl)-N,N-dimethylacetamide]",7.12,–
"Cc1cc(Nc2ncc(Cl)c(Nc3cn(C)nc3S(=O)(=O)C(C)C)n2)c(OC2CC2)cc1C1CCN(C2CCN(C)CC2)CC1 [Final product 158, 5-chloro-N^2-(2-cyclopropoxy-5-methyl-4-(1-(1-methyl-piperidin-4-yl)piperidin-4-yl)phenyl)-N^4-(3-(isopropylsulfonyl)-1-methyl-1H-pyrazol-4-yl)pyrimidin-2,4-diamine]",–,6.77
"Cc1cc(Nc2ncc(Cl)c(Nc3cn(C)nc3S(=O)(=O)CC(C)C)n2)c(OC2CC2)cc1[C@H]1CC[C@@H](N(C)C)CC1 [Final product 175, 5-chloro-N^2-(2-cyclopropoxy4-(4-(dimethylamino)cyclohexyl)-5-methylphenyl)-N^4-(3-(isobutylsulfonyl)-1-methyl-1H-pyrazol-4-yl) pyrimidin-2,4-diamine]",6.59,–
"Cc1cc(Nc2ncc(Cl)c(Nc3cn(C)nc3S(=O)(=O)CC(C)C)n2)c(OC2CC2)cc1[C@H]1CC[C@H](N(C)C)CC1 [Final product 176, 5-chloro-N^2-(2-cyclopropoxy4-(4-(dimethylamino)cyclohexyl)-5-methylphenyl)-N^4-(3-(isobutylsulfonyl)-1-methyl-1H-pyrazol-4-yl) pyrimidin-2,4-diamine]",7.04,–
CCN(CC)[C@H]1CC[C@@H](c2cc(OC3CC3)c(Nc3ncc(Cl)c(Nc4cn(C)nc4S(=O)(=O)CC(C)C)n3)cc2C)CC1 [Final product 177],7.14,–

SMILES,"pIC50 (NCI-H2228, 96 h)",pIC50 (96 h)
Cc1cc(Nc2ncc(Cl)c(Nc3cn(C)nc3S(=O)(=O)CC(C)C)n2)c(OC2CC2)cc1[C@H]1CC[C@@H](NC2CC2)CC1 [Final product 179],6.86,–
Cc1cc(Nc2ncc(Cl)c(Nc3cn(C)nc3S(=O)(=O)CC(C)C)n2)c(OC2CC2)cc1[C@H]1CC[C@@H](NC(C)C)CC1 [Final product 181],6.97,–
Cc1cc(Nc2ncc(Cl)c(Nc3cn(C)nc3S(=O)(=O)C(C)C)n2)c(OC(C)C)cc1C1CCC(N(C)C)CC1 (centres unmarked) [Final product 183],6.76,–
CCN(CC)[C@H]1CC[C@H](c2cc(OC(C)C)c(Nc3ncc(Cl)c(Nc4cn(C)nc4S(=O)(=O)C(C)C)n3)cc2C)CC1 [Final product 184],6.73,–
Cc1cc(Nc2ncc(Cl)c(Nc3cn(C)nc3S(=O)(=O)C(C)C)n2)c(OC(C)C)cc1[C@H]1CC[C@@H](NC2CC2)CC1 [Final product 185],6.53,–
Cc1cc(Nc2ncc(Cl)c(Nc3cn(C)nc3S(=O)(=O)C(C)C)n2)c(OC(C)C)cc1[C@H]1CC[C@H](NC2CC2)CC1 [Final product 186],6.60,–
Cc1cc(Nc2ncc(Cl)c(Nc3cn(C)nc3S(=O)(=O)C(C)C)n2)c(OC(C)C)cc1[C@H]1CC[C@@H](NC(C)C)CC1 [Final product 187],6.95,–
Cc1cc(Nc2ncc(Cl)c(Nc3cn(C)nc3S(=O)(=O)C(C)C)n2)c(OC2CC2)cc1[C@H]1CC[C@@H](N(C)C(C)C)CC1 [Final product 193],6.94,–
Cc1cc(Nc2ncc(Cl)c(Nc3cn(C)nc3S(=O)(=O)C(C)C)n2)c(OC2CC2)cc1[C@H]1CC[C@H](N(C)C(C)C)CC1 [Final product 194],7.11,–
Cc1cc(Nc2ncc(Cl)c(Nc3cn(C)nc3S(=O)(=O)C(C)C)n2)c(OC2CC2)cc1[C@H]1CC[C@@H](NC2CC2)CC1 [Final product 195],6.94,–
Cc1cc(Nc2ncc(Cl)c(Nc3cn(C)nc3S(=O)(=O)C(C)C)n2)c(OC2CC2)cc1[C@H]1CC[C@@H](NC(C)C)CC1 [Final product 197],7.14,–
Cc1cc(Nc2ncc(Cl)c(Nc3cn(C)nc3S(=O)(=O)C(C)C)n2)c(OC2CC2)cc1[C@H]1CC[C@@H](NCCN(C)C)CC1 [Final product 199],6.65,–
Cc1cc(Nc2ncc(Cl)c(Nc3cn(C)nc3S(=O)(=O)C(C)C)n2)c(OC2CC2)cc1[C@H]1CC[C@H](NCCN(C)C)CC1 [Final product 200],6.68,–
Cc1cc(Nc2ncc(Cl)c(Nc3cn(C)nc3S(=O)(=O)C(C)C)n2)c(OC2CC2)cc1C1CCC(N2CCCC2)CC1 (centres unmarked) [Final product 201],6.83,–
CC(=O)N1CCN([C@H]2CC[C@@H](c3cc(OC4CC4)c(Nc4ncc(Cl)c(Nc5cn(C)nc5S(=O)(=O)C(C)C)n4)cc3C)CC2)CC1 [Final product 203],6.72,–
"Cc1cc(Nc2ncc(Cl)c(Nc3cn(C)nc3S(=O)(=O)C(C)C)n2)c(OC2CC2)cc1[C@H]1CC[C@H](NC(=O)C2CC2)CC1 [Final product 207, N-(4-(4-(5-chloro-4-(3-(isopropylsulfonyl)-1-methyl-1H-pyrazol-4-amine)pyrimidin-2-amine)-5-cyclopropoxy-2-methylphenyl)cyclohexyl) cyclopropyl carboxamide]",6.81,–

# Reference: patent publication US10023593B2, “ALK kinase inhibitor, and preparation method and uses thereof” (BEIJING PEARL BIOTECHNOLOGY LIMITED LIABILITY COMPANY, priority 2014, dated 2018)
